Laboratory results as given in article PMC6335420, “The cell cycle regulator GpsB functions as cytosolic adaptor for multiple cell wall enzymes” (Nature Communications, 2019).
“Also recorded” adds a separate entry of the source. Residues, ends and D or L forms follow the SMILES beside them. *: point of attachment. Fluorescein(5-Mal) = O=C1OC2(c3ccc(O)cc3Oc3cc(O)ccc32)c2ccc(N3C(=O)CC(*)C3=O)cc21; X1 = CN(C)c1ccc2c(-c3ccc(N4C(=O)CC(*)C4=O)cc3C(=O)[O-])c3ccc(=[N+](C)C)cc-3oc2c1

Assays:
L. monocytogenes [1] = assay: L. monocytogenes fosfomycin susceptibility (filter disc); assay type: cell-based, Listeria monocytogenes EGD-e; conditions: halo around filter disc, BHI agar, 37 °C; pbpA1 R8A,R12A and Q10P mutants; triplicate
Description: Fosfomycin susceptibility was recorded using filter discs (Ø 6 mm) soaked with 10 µL of a 10 mg^−1mL^−1 fosfomycin solution. L. monocytogenes colonies, grown on BHI agar plates, were resuspended in BHI broth and used to swab-inoculate BHI agar plates. Filter discs soaked with fosfomycin were placed on top of the agar surface and the plates were incubated at 37 °C overnight. Diameter of growth inhibition zones was measured and corrected for the filter disc diameter. All experiments were performed three times and average values and standard deviations were calculated. Significance was determined using the t-test and differences were considered to be significant when P < 0.01.

L. monocytogenes [2] = conditions: 37 °C, vs wild-type L. monocytogenes; cited from earlier work
LmGpsB1-73 = molecular target: T1, LmGpsB1-73 (Listeria monocytogenes serovar 1/2a, UniProt Q8Y614); assay: Fluorescence polarisation binding to LmGpsB1-73; conditions: FP
T1 construct: made in house; host or cells: E. coli BL21(DE3)
Source text: (§1) 75 the BsGpsB5-64:BsPBP11-17 complex.

BsGpsB1-68Lys32Glu = molecular target: T2, BsGpsB1-68Lys32Glu (Bacillus subtilis, UniProt P0CI74, K32E); assay: Fluorescence polarisation binding to BsGpsB1-68Lys32Glu; conditions: FP
T2 construct: His6 (N, cleaved yes); made in house; host or cells: E. coli BL21(DE3)
Source text: as §1

BsGpsB1-68Glu17Ala = molecular target: T3, BsGpsB1-68Glu17Ala (Bacillus subtilis, UniProt P0CI74, E17A); assay: Fluorescence polarisation binding to BsGpsB1-68Glu17Ala; conditions: FP, BsGpsB1-68Glu17Ala relative to wild-type BsGpsB1-68
T3 construct: Glu17Ala, Asp31Ala and Asp35Ala mutations were introduced to the BsGpsB1-68 expression construct plasmid; His6 (N, cleaved yes); made in house; host or cells: E. coli BL21(DE3)
Source text: as §1

BsGpsB1-68Tyr25Phe = molecular target: T4, BsGpsB1-68Tyr25Phe (Bacillus subtilis, UniProt P0CI74, Y25F); assay: Fluorescence polarisation binding to BsGpsB1-68Tyr25Phe; conditions: FP, BsGpsB Tyr25Phe relative to wild-type BsGpsB1-68
T4 construct: correspond to BsGpsB1-68^Asp31Ala and BsGpsB1-68^Tyr25Phe mutants, respectively; His6 (N, cleaved yes); made in house; host or cells: E. coli BL21(DE3)
Source text: as §1

BsGpsB1-68Asp35Ala = molecular target: T5, BsGpsB1-68Asp35Ala (Bacillus subtilis, UniProt P0CI74, D35A); assay: Fluorescence polarisation binding to BsGpsB1-68Asp35Ala; conditions: FP, BsGpsB1-68Asp35Ala relative to wild-type BsGpsB1-68
T5 construct: Glu17Ala, Asp31Ala and Asp35Ala mutations were introduced to the BsGpsB1-68 expression construct plasmid; His6 (N, cleaved yes); made in house; host or cells: E. coli BL21(DE3)
Source text: as §1

[3] = Circular dichroism of PBP peptides (helicity); assay type: physicochemical; conditions: CD, 222 nm, 4 °C, 20 mM sodium phosphate pH 7.3, 25 μM peptide
Description: CD spectra were recorded on a JASCO J-810 spectropolarimeter with a PTC-4235 Peltier temperature controller using 1 mm path length quartz cuvettes. For full wavelength scans a scan speed of 10 nm^−1min^−1 and a response time of 4 s were used, the final spectra were the average of at least four measurements. BsPBP1_1-32 CD spectra were recorded at 4 °C in a buffer of 20 mM sodium phosphate, pH 7.3 at a peptide concentration of 25 μM. Peptide helical contents were estimated from molar ellipticities at 222 nm using the equation helix = [θ]222 nm / (39,500(1–2.57/n))[78] where n is the number of residues in the peptide. LmPBPA1_1-15 CD spectra were analysed at 40 μM in 20 mM sodium phosphate buffer, pH 7.8, for samples containing 0, 40 and 60% trifluoroethanol (TFE). For samples containing 80% TFE, 5 mM sodium phosphate buffer, pH 7.8, was used. The CD spectra of BsGpsB1-68 proteins were measured at a concentration of 4.5 μM in a buffer of 20 mM sodium phosphate (pH 7.8) 150 mM NaCl. For thermal melt experiments, a response time of 8 s and scan rate of 1 °C^−1min^−1 were used. All thermal melts were reversible as CD spectra recorded before and after the melts in the wavelength range 200–240 nm could be superimposed.

BsGpsB1-68Asp31Ala = molecular target: T6, BsGpsB1-68Asp31Ala (Bacillus subtilis, UniProt P0CI74, D31A); assay: Fluorescence polarisation binding to BsGpsB1-68Asp31Ala; conditions: FP, BsGpsB Asp31Ala relative to wild-type BsGpsB1-68
T6 construct: Glu17Ala, Asp31Ala and Asp35Ala mutations were introduced to the BsGpsB1-68 expression construct plasmid; His6 (N, cleaved yes); made in house; host or cells: E. coli BL21(DE3)
Source text: as §1

[4] = molecular target: T7, full-length BsPBP1 (Bacillus subtilis PBP1) (B. subtilis, UniProt P39793 1-914); assay: SPR; BsPBP1 or BsPBP1_(17-914) immobilised on a CM5 chip (1200 RUs of BsPBP1); BsGpsB injected; 10 mM Tris.HCl pH 8.0, 250 mM NaCl, 0.1% reduced Triton X-100; conditions: both partners purified
T7 construct: also called wild-type BsPBP1; source: E. coli, purified from membrane pellets (His select resin, thrombin, Superdex S200)
T7 sequence (looked up): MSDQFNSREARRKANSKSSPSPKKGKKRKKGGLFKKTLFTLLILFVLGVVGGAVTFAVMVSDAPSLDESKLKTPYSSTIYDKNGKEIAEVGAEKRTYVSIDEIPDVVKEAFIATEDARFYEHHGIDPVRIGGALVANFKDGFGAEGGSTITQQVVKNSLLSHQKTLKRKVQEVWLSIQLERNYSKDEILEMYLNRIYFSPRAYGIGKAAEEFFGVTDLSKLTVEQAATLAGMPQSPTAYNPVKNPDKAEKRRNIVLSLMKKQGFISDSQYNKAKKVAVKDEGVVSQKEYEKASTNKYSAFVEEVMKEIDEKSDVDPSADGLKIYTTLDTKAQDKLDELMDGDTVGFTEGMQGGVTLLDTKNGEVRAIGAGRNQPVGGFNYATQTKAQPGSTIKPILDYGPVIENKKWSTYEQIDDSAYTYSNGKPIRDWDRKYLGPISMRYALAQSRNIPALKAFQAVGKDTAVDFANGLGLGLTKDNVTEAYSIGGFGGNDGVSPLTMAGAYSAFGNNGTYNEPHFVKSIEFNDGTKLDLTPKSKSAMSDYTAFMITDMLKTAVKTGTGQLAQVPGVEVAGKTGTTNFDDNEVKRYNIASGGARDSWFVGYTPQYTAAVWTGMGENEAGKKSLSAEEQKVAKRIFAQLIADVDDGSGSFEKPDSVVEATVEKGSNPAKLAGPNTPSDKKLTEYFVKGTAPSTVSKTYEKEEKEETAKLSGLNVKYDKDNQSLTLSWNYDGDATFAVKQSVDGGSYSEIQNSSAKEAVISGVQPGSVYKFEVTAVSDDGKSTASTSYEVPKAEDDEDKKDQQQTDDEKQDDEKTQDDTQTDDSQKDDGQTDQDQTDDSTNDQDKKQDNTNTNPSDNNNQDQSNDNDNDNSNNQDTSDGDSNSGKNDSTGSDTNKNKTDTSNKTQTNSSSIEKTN

full-length BsPBP1 = assay: SPR binding to immobilised full-length BsPBP1; set-up: species or system Bacillus subtilis
Source text: (§2) BsPBP1 and BsPBP1_17-914 were immobilised on the surface of a CM5 chip (GE Healthcare). For the BsPBP1/YrrSΔ13-16 titration 800 RUs of BsPBP1 were immobilised on the chip surface; for the BsPBP1/BsGpsB titration 1200 RUs of BsPBP1 were immobilised. YrrSΔ13-16, which lacks residues 13–16 in the cytoplasmic domain, was used in these experiments to minimise non-specific interactions with the chip matrix; binding of YrrSΔ13-16 to the reference surface was negligible and the deletion of residues 13–16 leaves the GpsB-binding motif intact. The YrrSΔ13-16 titration was carried out in single-cycle mode, without regenerating the surface between successive injections of protein, because harsh reagents were necessary for full surface regeneration.

BsPBP1_17-914 = assay: SPR binding to immobilised BsPBP1_17-914; set-up: species or system Bacillus subtilis; conditions: chip coated with BsPBP1_17-914, even when 25 µM BsGpsB injected
Source text: as §2

## C[C@@H]1O[C@@H]1P(=O)(O)O [fosfomycin]
L. monocytogenes [1]
  fosfomycin sensitivity: Effects on fosfomycin sensitivity were apparent in mutants carrying the pbpA1^Arg8Ala,Arg12Ala and pbpA1^Gln10Pro alleles but only when LmPBPA2, the LmPBPA1 paralogue, was also absent
L. monocytogenes [2]
  fosfomycin susceptibility of ΔgpsB mutants: more susceptible

## CSCC[C@H](NC(=O)[C@H](CO)NC(=O)CN)C(=O)N[C@@H](C)C(=O)N[C@@H](CC(=O)O)C(=O)N[C@@H](CCCCN)C(=O)N1CCC[C@H]1C(=O)N[C@@H](CCC(N)=O)C(=O)N[C@H](C(=O)N[C@@H](CCCNC(=N)N)C(=O)N[C@@H](CO)C(=O)N[C@@H](CCC(N)=O)C(=O)N[C@@H](Cc1ccc(O)cc1)C(=O)N[C@@H](CCCNC(=N)N)C(=O)N[C@@H](CC(N)=O)C(=O)N[C@@H](CCCCN)C(=O)N[C@@H](CCC(N)=O)C(=O)N[C@@H](CO)C(=O)NCC(=O)NCC(=O)N[C@@H](CSC1CC(=O)N(c2ccc3c(c2)C(=O)OC32c3ccc(O)cc3Oc3cc(O)ccc32)C1=O)C(=O)N[C@@H](CCCCN)C(=O)O)[C@@H](C)O (some centres unmarked) [Fluorescein-LmPBPA11-20] (H-GSMADKPQTRSQYRNKQSGGC(Fluorescein(5-Mal))K-OH; N-terminus and C-terminus assumed)
LmGpsB1-73
  binding to LmGpsB1-73 (in words): affinity similar to that of BsPBPA1_1-32 for BsGpsB1-68
BsGpsB1-68Lys32Glu
  binding to BsGpsB1-68Lys32Glu (in words): almost identical

## CSCC[C@H](NC(=O)[C@H](CO)NC(=O)CN)C(=O)N[C@@H](C)C(=O)N[C@@H](CC(=O)O)C(=O)N[C@@H](CCC(N)=O)C(=O)N[C@@H](Cc1ccccc1)C(=O)N[C@@H](CC(N)=O)C(=O)N[C@@H](CO)C(=O)N[C@@H](CCCNC(=N)N)C(=O)N[C@@H](CCC(=O)O)C(=O)N[C@@H](C)C(=O)N[C@@H](CCCNC(=N)N)C(=O)N[C@@H](CCCNC(=N)N)C(=O)N[C@@H](CCCCN)C(=O)N[C@@H](C)C(=O)N[C@@H](CC(N)=O)C(=O)N[C@@H](CSC1CC(=O)N(c2ccc(-c3c4ccc(=[N+](C)C)cc-4oc4cc(N(C)C)ccc34)c(C(=O)[O-])c2)C1=O)C(=O)N[C@@H](CCCCN)C(=O)N[C@@H](CO)C(=O)N[C@@H](CO)C(=O)N1CCC[C@H]1C(=O)N[C@@H](CO)C(=O)N1CCC[C@H]1C(=O)N[C@@H](CCCCN)C(=O)N[C@@H](CCCCN)C(=O)NCC(=O)N[C@@H](CCCCN)C(=O)N[C@@H](CCCCN)C(=O)N[C@@H](CCCNC(=N)N)C(=O)N[C@@H](CCCCN)C(=O)N[C@@H](CCCCN)C(=O)NCC(=O)NCC(=O)O (some centres unmarked) [TAMRA-BsPBP11-32] (H-GSMADQFNSREARRKANC(X1)KSSPSPKKGKKRKKGG-OH)
BsGpsB1-68Glu17Ala
  reduction in affinity on GpsB mutation: more than 8 fold
BsGpsB1-68Tyr25Phe
  reduction in affinity on GpsB mutation: more than 8 fold
BsGpsB1-68Asp35Ala
  reduction in affinity on GpsB mutation: more than 8 fold
[3]
  helical residues corresponding to helical content: ~ 5 residues
[3]; average of at least four measurements
  α-helical content: 14%
BsGpsB1-68Asp31Ala
  reduction in affinity on GpsB mutation: more than 8 fold

B1: full-length BsGpsB (Bacillus subtilis GpsB) (natural protein, B. subtilis, UniProt P0CI74 1-98, looked up)
chain: MLADKVKLSAKEILEKEFKTGVRGYKQEDVDKFLDMIIKDYETFHQEIEELQQENLQLKKQLEEASKKQPVQSNTTNFDILKRLSNLEKHVFGSKLYD
notes: GpsB, Bacillus subtilis; purification of the full-length protein is not described here; source: E. coli BL21(DE3) used for recombinant protein production)
[4]
  binding result: binds
full-length BsPBP1; SPR, PBP1-coated chip, full-length GpsB data fit 1:1 only over limited concentration range (avidity), BsGpsB1-68 supports 1:1, peer review file, read-out: affinity / Kd by SPR
  Kd: 700 nM
full-length BsPBP1; chip coated with wild-type BsPBP1 (1200 RU), submicromolar BsGpsB
  SPR binding (in words): submicromolar concentrations of BsGpsB bound to chips coated with the wild-type BsPBP1
BsPBP1_17-914
  SPR binding (in words): does not interact; also recorded: no interaction
